Test system: subjects' underarms
Assay: In vivo study of eight-hour antiperspirant efficacy (FDA Guidelines for Effectiveness Testing of OTC Antiperspirant Drug Products, hot room, weighed pads)
Set-up: species or system human
Details: for Antiperspirant activity against FDA Guidelines success criteria (minimum of 20% sweat reduction in at least 50% volunteers): eight-hour efficacy, day 30 of application period; for % of subjects with reduction in relation to control / Average % of sweat reduction (mg): roll-on compositions of Examples 7-9 applied daily to one underarm for 30 days, eight hours after, hot room 37.8° C.; for % of subjects with reduction in relation to control: other underarm untreated control, 30-40% RH, 80 minutes, fifteen subjects per composition; for Average % of sweat reduction (mg): relative to untreated control underarm, pad weights
Description: An in vivo study of the eight-hour antiperspirant efficacy of the compositions of Examples 7, 8 and 9 was performed as follows using the US FOOD AND DRUG ADMINISTRATION Guidelines for Effectiveness Testing of OTC Antiperspirant Drug Products, 2003. Example 7 was comparative, as indicated above.
Fifteen subjects were used to test each composition. Subjects were first subjected to a 21-day conditioning period, which began with a 14 day wash out period. During 14 day wash out period, the subjects used a standard bar soap and bacteriostatic deodorant supplied by the institute running the study. […] Following this, from day 15 to day 21 the subjects were instructed to use only standard soap and discontinue the bacteriostatic deodorant.
During the conditioning period, subjects were instructed and supervised by a trained technician to wash their underarms according to the following procedure: a) wash one of the underarms for 10 seconds with an aqueous solution of standard soap 2.0%; b) rinse thoroughly with running water until the soap is completely removed; c) dry the underarm with a paper towel; and d) repeat the procedure with the other underarm.
After the wash out period was completed, each subject was checked for unauthorized use of antiperspirant products during the conditioning period using a cotton swab in the underarms.
Next, a 30 day application period began. 150 cm^2, randomly distributed areas were marked on each subjects' underarm. Test samples were then applied to one underarm of each subject, while the other underarm was untreated as a control every day during the 30 day application period. Subjects waxed or shaved their underarms every Friday evening.
On day 30 of the 30 day application period, each subject was provided with a 100% cotton t-shirt previously washed with water and neutral soap without fragrance and again washed only with water. The subjects were instructed to wear the T-shirts for eight hours.
After eight hours, the subjects were placed in a room at 37.8° C.±1° C. and relative humidity between 30% and 40% for 80 minutes. After 40 minutes in the hot room, pads previously weighed and stored in closed polyethylene bags were removed from the bags and placed immediately onto the subjects' underarms, and then replaced every 20 minutes. Subjects ingested 200 mL of water when entering the hot room and also 40 minutes later in order to maintain the internal level of hydration, allowing the sweat to flow freely and evidencing only the effects of the formulation of the product tested. The initial 40 minute period was considered as an acclimatization period.
Used pads were collected every 20 minutes and weighed. The weights of the pads pre- and post-use were compared according to the FDA Guidelines using statistical analysis with the Wilcoxon Signed Rank test (FDA protocol) and the Student-t test paired with the unilateral hypothesis of improvement for sweating assessment. The confidence level considered in the comparative analysis was 95%. Software: XLSTAT 2013 and MINITAB 14.

Substance	Antiperspirant activity against FDA Guidelines success criteria (minimum of 20% sweat reduction in at least 50% volunteers)	% of subjects with reduction in relation to control	Average % of sweat reduction (mg)	Average % of sweat reduction (mg) (listed as acetyl hexapeptide-8)
acetyl hexapeptide-8 [reference compound]	did not meet success criteria	66.7%	8.0%	8.0%
acetyl octapeptide-3	confirms antiperspirant activity	81.8%	20.7%	
dipeptide diaminobutyroyl benzylamide diacetate	confirms antiperspirant activity	92.3%	25.6%	
